Data: patent US20230203098A1, “HUMAN TRANSFERRIN RECEPTOR BINDING PEPTIDE” (priority 2020, published 2023)
Like-named read-outs stand apart in the source and are kept apart here. Where a SMILES comes first, the peptide text is derived from it. Bridges are numbered along the chain shown (N, C = ends). [ ]: non-standard residue; d: D form. The star is where a group is joined. X2 = O=C(O)c1cc(C(=O)*)ccc1-c1c2ccc(=O)cc-2oc2cc(O)ccc12; PEG12 = NCCOCCOCCOCCOCCOCCOCCOCCOCCOCCOCCOCCOCCC(=O)O; NMePhe(3-Cl) = CN[C@@H](Cc1cccc(Cl)c1)C(=O)O; NMeW = CN[C@@H](Cc1c[nH]c2ccccc12)C(=O)O; X4 = O=C1C=CC(=O)N1CC1CCC(C(=O)*)CC1; NMeY = CN[C@@H](Cc1ccc(O)cc1)C(=O)O; PEG4 = NCCOCCOCCOCCOCCC(=O)O; Nva = CCC[C@H](N)C(=O)O

Molecular target: transferrin receptor (hTfR) (Homo sapiens, UniProt P02786)
Sequence (P02786 whole entry): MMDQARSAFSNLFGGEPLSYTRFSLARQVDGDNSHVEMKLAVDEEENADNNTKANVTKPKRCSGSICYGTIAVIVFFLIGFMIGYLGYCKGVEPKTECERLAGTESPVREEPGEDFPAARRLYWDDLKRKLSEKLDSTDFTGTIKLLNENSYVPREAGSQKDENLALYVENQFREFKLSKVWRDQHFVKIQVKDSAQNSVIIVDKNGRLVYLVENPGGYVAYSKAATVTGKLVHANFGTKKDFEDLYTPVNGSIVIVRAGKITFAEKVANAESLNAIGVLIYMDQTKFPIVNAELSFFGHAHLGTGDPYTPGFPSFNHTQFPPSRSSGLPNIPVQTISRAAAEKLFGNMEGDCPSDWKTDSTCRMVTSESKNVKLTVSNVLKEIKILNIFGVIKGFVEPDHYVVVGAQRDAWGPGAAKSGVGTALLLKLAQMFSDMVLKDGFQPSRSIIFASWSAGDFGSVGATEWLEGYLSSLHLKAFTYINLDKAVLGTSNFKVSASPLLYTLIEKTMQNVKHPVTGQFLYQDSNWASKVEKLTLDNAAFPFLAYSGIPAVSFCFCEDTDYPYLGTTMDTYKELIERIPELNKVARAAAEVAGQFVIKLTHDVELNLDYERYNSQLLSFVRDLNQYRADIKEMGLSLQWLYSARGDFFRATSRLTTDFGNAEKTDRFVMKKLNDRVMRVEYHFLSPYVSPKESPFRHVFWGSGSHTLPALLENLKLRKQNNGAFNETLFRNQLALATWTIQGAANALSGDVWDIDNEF
Test: Intermolecular interaction evaluation test between transferrin receptor (hTfR) and peptide by surface plasmon resonance (SPR)
Assay type: binding
How it was run: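 Receptor was Ni-captured and EDC/NHS-fixed on an NTA chip; running buffer HEPES pH 8.0 with NaCl, Tween 20, BSA and 1.0% DMSO.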

[1] = SPR, peptides, linker-added peptides and FITC conjugates, Patent ID 203-230, read-out: KD
[2] = binding to hTfR by SPR, Table 2 peptides, read-out: KD value (SPR) class
[3] = surface plasmon resonance, peptide vs hTfR, read-out: KD value for hTfR by SPR (class symbol)

**Q.** `CC[C@H](C)[C@@H]1NC(=O)[C@H](CCCNC(=N)N)NC(=O)[C@H](CC(N)=O)NC(=O)[C@H](C)NC(=O)CSC[C@@H](C(=O)NCCOCCOCCOCCOCCOCCOCCOCCOCCOCCOCCOCCOCCC(=O)N[C@@H](CCCCNC(=O)c2ccc(-c3c4ccc(=O)cc-4oc4cc(O)ccc34)c(C(=O)O)c2)C(N)=O)NC(=O)[C@H](Cc2ccc(O)cc2)N(C)C(=O)[C@H](CCCNC(=N)N)NC(=O)[C@@H]2CCCN2C(=O)[C@H]([C@@H](C)CC)NC(=O)[C@H]([C@@H](C)CC)NC(=O)[C@H](Cc2ccc(O)cc2)NC(=O)[C@H](Cc2ccc(O)cc2)NC(=O)[C@H](CC(N)=O)NC(=O)[C@H](Cc2c[nH]c3ccccc23)NC(=O)[C@H](C(C)C)NC(=O)[C@H](Cc2ccccc2)NC(=O)[C@H](C(C)C)NC1=O` [compound 153] ({CH2CO}-ANRIVFVWNYYIIPR[NMeY]C[PEG12]K(X2)-NH2; thioether N-17) was tested. Which Kd (SPR, linker and payload (FITC, VivoTag) conjugates, read-out: KD) did it give?
**A.** 1 to 100 nM

**Q.** Which Kd [1] does the source give for `CC[C@H](C)[C@@H]1NC(=O)[C@H](Cc2ccc(OC)cc2)NC(=O)[C@H](Cc2ccc(O)cc2)NC(=O)[C@H](CC(N)=O)NC(=O)[C@H](Cc2c[nH]c3ccccc23)N(C)C(=O)[C@H](C(C)C)NC(=O)[C@H](Cc2cccc(Cl)c2)N(C)C(=O)[C@H](CCC(=O)O)NC(=O)[C@H](C)NC(=O)CSC[C@@H](C(=O)N[C@H](CCC(=O)O)C(=O)NCC(=O)NCC(=O)NCC(=O)N[C@@H](CO)C(=O)N[C@@H](CO)C(=O)N[C@@H](CS)C(N)=O)NC(=O)[C@H](Cc2ccc(O)cc2)N(C)C(=O)[C@H](Cc2ccccc2)NC(=O)[C@@H](CCCNC(=N)N)NC(=O)[C@H](CCCCN)NC(=O)[C@H]([C@@H](C)CC)NC1=O` [compound 230] ({CH2CO}-AE[NMePhe(3-Cl)]V[NMeW]NYY(Me)IIK[dR]F[NMeY]C[dE]GGGSSC-NH2; thioether N-15) here?
**A.** 1 to 100 nM

**Q.** For `CC[C@H](C)[C@@H]1NC(=O)[C@H](Cc2ccc(OC)cc2)NC(=O)[C@H](Cc2ccc(O)cc2)NC(=O)[C@H](CC(N)=O)NC(=O)[C@H](Cc2c[nH]c3ccccc23)N(C)C(=O)[C@H](C(C)C)NC(=O)[C@H](Cc2cccc(Cl)c2)N(C)C(=O)[C@H](C(C)C)NC(=O)[C@H](C)NC(=O)CSC[C@@H](C(N)=O)NC(=O)[C@H](Cc2ccc(O)cc2)N(C)C(=O)[C@H](Cc2ccccc2)NC(=O)[C@H](CCCNC(=N)N)NC(=O)[C@H](CCCCN)NC(=O)[C@H]([C@@H](C)CC)NC1=O` [compound 371], which Kd (surface plasmon resonance, hTfR, read-out: KD value for hTfR by SPR (class symbol)) is on record?
**A.** < 1 nM

**Q.** Which Kd [2] does the source give for `CC[C@H](C)[C@@H]1NC(=O)[C@H](Cc2ccc(O)cc2)NC(=O)[C@H](Cc2ccc(O)cc2)NC(=O)[C@H](CC(N)=O)NC(=O)[C@H](Cc2c[nH]c3ccccc23)NC(=O)[C@H](C(C)C)NC(=O)[C@H](Cc2ccccc2)NC(=O)[C@H](CCCCN)NC(=O)[C@H](C)NC(=O)CSC[C@@H](C(N)=O)NC(=O)[C@H](Cc2ccc(O)cc2)N(C)C(=O)[C@H](Cc2ccc(O)cc2)NC(=O)[C@H](CCCNC(=N)N)NC(=O)[C@H](CCCNC(=N)N)NC(=O)[C@H]([C@@H](C)CC)NC1=O` [compound 238] here?
**A.** 1 to 100 nM

**Q.** For `CC[C@H](C)[C@@H]1NC(=O)[C@H](Cc2ccc(OC)cc2)NC(=O)[C@H](Cc2ccc(O)cc2)NC(=O)[C@H](CC(N)=O)NC(=O)[C@H](Cc2c[nH]c3ccccc23)NC(=O)[C@H](C(C)C)NC(=O)[C@H](Cc2cccc(Cl)c2)N(C)C(=O)[C@H](CCC(=O)O)NC(=O)[C@H](C)NC(=O)CSC[C@@H](C(=O)NCC(=O)NCC(=O)N[C@@H](CO)C(=O)NCC(=O)N[C@@H](CO)C(=O)NCC(=O)N[C@@H](CCCCNC(=O)C2CCC(CN3C(=O)C=CC3=O)CC2)C(N)=O)NC(=O)[C@H](Cc2ccc(O)cc2)N(C)C(=O)[C@H](Cc2ccccc2)NC(=O)[C@@H](CCCNC(=N)N)NC(=O)[C@H](CCCNC(=N)N)NC(=O)[C@H]([C@@H](C)CC)NC1=O` (stereo partly shown) [compound 222] ({CH2CO}-AE[NMePhe(3-Cl)]VWNYY(Me)IIR[dR]F[NMeY]CGGSGSGK(X4)-NH2; thioether N-15), which Kd [1] is on record?
**A.** 1 to 100 nM

**Q.** For `CC[C@H](C)[C@@H]1NC(=O)[C@H](Cc2ccc(O)cc2)NC(=O)[C@H](Cc2ccc(O)cc2)NC(=O)[C@H](CC(N)=O)NC(=O)[C@H](Cc2c[nH]c3ccccc23)NC(=O)[C@H](C(C)C)NC(=O)[C@H](Cc2ccccc2)N(C)C(=O)[C@H](C(C)C)NC(=O)[C@H](C)NC(=O)CSC[C@@H](C(=O)NCCOCCOCCOCCOCCOCCOCCOCCOCCOCCOCCOCCOCCC(N)=O)NC(=O)[C@H](Cc2ccc(O)cc2)N(C)C(=O)[C@H](Cc2ccc(O)cc2)NC(=O)[C@H](CCCNC(=N)N)NC(=O)[C@H](CCCNC(=N)N)NC(=O)[C@H]([C@@H](C)CC)NC1=O` [compound 420], which Kd [3] is on record?
**A.** 1 to 100 nM

**Q.** With `CCC[C@@H]1NC(=O)[C@H](C)NC(=O)CSC[C@@H](C(=O)NCCOCCOCCOCCOCCC(N)=O)NC(=O)[C@H](Cc2ccc(O)cc2)N(C)C(=O)[C@H](Cc2ccccc2)NC(=O)[C@@H](CCCNC(=N)N)NC(=O)[C@H](CCCNC(=N)N)NC(=O)[C@H]([C@@H](C)CC)NC(=O)[C@H]([C@@H](C)CC)NC(=O)[C@H](Cc2ccc(OC)cc2)NC(=O)[C@H](Cc2ccc(O)cc2)NC(=O)[C@H](CC(N)=O)NC(=O)[C@H](Cc2c[nH]c3ccccc23)N(C)C(=O)[C@H](C(C)C)NC(=O)[C@H](Cc2cccc(Cl)c2)N(C)C1=O` [compound 244] ({CH2CO}-A[Nva][NMePhe(3-Cl)]V[NMeW]NYY(Me)IIR[dR]F[NMeY]C[PEG4]-NH2; thioether N-15) as the molecule, how does the Kd [2] read?
**A.** 1 to 100 nM

**Q.** How did the Kd [3] turn out when `CC[C@H](C)[C@@H]1NC(=O)[C@H](Cc2ccc(O)cc2)NC(=O)[C@H](Cc2ccc(O)cc2)NC(=O)[C@H](CC(N)=O)NC(=O)[C@H](Cc2c[nH]c3ccccc23)NC(=O)[C@H](C(C)C)NC(=O)[C@H](Cc2ccccc2)N(C)C(=O)[C@H](C(C)C)NC(=O)[C@H](C)NC(=O)CSC[C@@H](C(=O)NCC(=O)N[C@H](CCC(=O)O)C(=O)N[C@H](CCC(=O)O)C(=O)N[C@H](CCC(=O)O)C(=O)N[C@@H](CO)C(=O)N[C@@H](CO)C(=O)N[C@@H](CSCC(=O)NC)C(N)=O)NC(=O)[C@H](Cc2ccc(O)cc2)N(C)C(=O)[C@H](Cc2ccc(O)cc2)NC(=O)[C@H](CCCNC(=N)N)NC(=O)[C@H](CCCNC(=N)N)NC(=O)[C@H]([C@@H](C)CC)NC1=O` [compound 424] was run?
**A.** 1 to 100 nM

**Q.** Which Kd [2] does the source give for `CC[C@H](C)[C@@H]1NC(=O)[C@H](Cc2ccc(O)cc2)NC(=O)[C@H](Cc2ccc(O)cc2)NC(=O)[C@H](CC(N)=O)NC(=O)[C@H](Cc2c[nH]c3ccccc23)N(C)C(=O)[C@H](C(C)C)NC(=O)[C@H](Cc2ccccc2)NC(=O)[C@H](C(C)C)NC(=O)[C@H](C)NC(=O)CSC[C@@H](C(N)=O)NC(=O)[C@H](Cc2ccc(O)cc2)N(C)C(=O)[C@H](Cc2ccc(O)cc2)NC(=O)[C@H](CCCNC(=N)N)NC(=O)[C@H](CCCNC(=N)N)NC(=O)[C@H]([C@@H](C)CC)NC1=O` [compound 263] here?
**A.** < 1 nM

**Q.** Which Kd (surface plasmon resonance, peptide vs hTfR, read-out: KD value, hTfR binding by SPR (class symbol)) does the source give for `CC[C@H](C)[C@@H]1NC(=O)[C@H](Cc2ccc(OCC(=O)O)cc2)NC(=O)[C@H](Cc2ccc(O)cc2)NC(=O)[C@H](CC(N)=O)NC(=O)[C@H](Cc2c[nH]c3ccccc23)N(C)C(=O)[C@H](C(C)C)NC(=O)[C@H](Cc2cccc(Cl)c2)N(C)C(=O)[C@H](C(C)C)NC(=O)[C@H](C)NC(=O)CSC[C@@H](C(N)=O)NC(=O)[C@H](Cc2ccc(O)cc2)N(C)C(=O)[C@H](Cc2ccccc2)NC(=O)[C@@H](CCCNC(=N)N)NC(=O)[C@H](CCCNC(=N)N)NC(=O)[C@H]([C@@H](C)CC)NC1=O` [compound 320] here?
**A.** 1 to 100 nM
